Source: US20060110401A1, “Mixture of peptides from c and ns3 proteins of the hepatitis c virus and applications thereof” (priority 2002, published 2006)
Where two headings read alike, the source gives them in different places. Residues, ends and D or L forms follow the SMILES beside them.

Legend:
DR3 = test: DR3
Source text: (§1) Table printed on a drawing sheet, Figure 2
Where the first naming reader finds the target: head: DR3

DRB5 [1] = test: DRB5
DRB4 = test: DRB4
Source text: as §1
Where the first naming reader finds the target: head: DRB4

DR15 [2] = test: DR15
[3] = tested on: splenocytes from mice transgenic for the human HLA-DR1 molecules; test: Proliferation assay with splenocytes of immunized HLA-DR1 transgenic mice; type: in vivo; details: 25 μg of single peptide in montanide, subcutaneous, two injections; restimulation 5 μg/ml; FIG. 4A
Protocol: The ability of the peptides having good affinity for the HLA II molecules, as defined above, to induce an immune response was evaluated by means of an in vitro proliferation assay in mice transgenic for HLA-DR1 molecules (Wilkinson et al., Infect. Immunity, 1999, 67, 1501-; Rosloniec et al., J. Exp. Med., 1997, 185, 1113-), pre-immunized with these peptides.
15 days later, a second injection was given under the same conditions. Ten days after the second injection, the animals were sacrificed and their spleen was removed. The splenocytes were cultured in HL-1 medium (Biowhittaker) supplemented with 1% of mouse serum, in the presence of 5 μg/ml of each of the peptides used for the injection, or in the absence of peptide. After 4 days of culture, 1 μCi of tritiated thymidine (Amersham, Life Technologies) was added for 16 h. The tritiated thymidine incorporation was then measured using a beta-counter (Microbeta 1450, Perkin Elmer). The results are expressed as a proliferation index (number of CPM in the presence of peptide/number of CPM in the absence of peptide).

DR13 = test: DR13
Source text: as §1
Where the first naming reader finds the target: head: DR13

DR11 [4] = test: DR11
Source text: as §1
(§2) Where the first naming reader finds the target: head: DR11

DR7 [5] = test: DR7
HLA-DR1 (DRB1*0101) = target: T1, HLA-DR1 (DRB1*0101) (Homo sapiens, UniProt P01903+P01911, A100R/D57E/F55L/F60I/F76Y/I96L/L162R/M171V/P40L/Q125E/R42F/V115G/Y59C); test: biochemical; type: binding
T1 construct: endogenous in cells; host or cells: homozygous EBV-transformed human B lymphocyte lines; immunopurified with antibody L243

DRB3 = test: DRB3
DR4 [6] = test: DR4
DR15 [7] = test: DR15; remark: listed apart in the source
Source text: (§3) Table printed on a drawing sheet, Figure 3
(§4) The patent's description of the figure: FIG. 3 illustrates the binding activity, with respect to the HLA II molecules that are predominant in the Caucasian population, of a second series of peptides of the C and NS3 proteins, derived from the first series. The values correspond to the IC50 values, expressed in nM.
(§5) First copying reader's note: The sheet prints no unit; blank spacer lines between peptide groups are left out, and the Nb head is printed slightly left of its column.; the cell N1056-1070 / DR15 is printed empty.; the cell N1056-1070 / DR15 is printed empty.
Where the first naming reader finds the target: head: DR15

DP401 = test: DP401
Source text: as §3, §4, §5
Where the first naming reader finds the target: head: DP401

DR7 [8] = test: DR7; remark: listed apart in the source
Source text: as §3, §4, §5
Where the first naming reader finds the target: head: DR7

DR11 [9] = test: DR11; remark: listed apart in the source
Source text: as §3, §4, §5, §2

DR1 = test: DR1
Source text: as §3, §4, §5
Where the first naming reader finds the target: head: DR1

DR4 [10] = test: DR4; remark: listed apart in the source
Source text: as §3, §4, §5
Where the first naming reader finds the target: head: DR4

DRB5 [11] = test: DRB5; remark: listed apart in the source
Source text: as §3, §4, §5
Where the first naming reader finds the target: head: DRB5

Compound | IC50 (DR3) | IC50 (DRB5 [1]) | IC50 (DRB4) | IC50 (DR15 [2]) | immune response (splenocyte proliferation index) [3] | IC50 (DR13) | IC50 (DR11 [4]) | IC50 (DR7 [5]) | IC50 (HLA-DR1 (DRB1*0101); DRB1*0101, competition with biotinylated tracer HA 306-318, read-out: IC50, binding to HLA-DR1) | affinity for HLA-DR1 (in words) (HLA-DR1 (DRB1*0101); legend of FIG. 4) | IC50 (DRB3) | IC50 (DR4 [6]) | IC50 (DR15 [7]) | IC50 (DP401) | IC50 (DR7 [8]) | IC50 (DR11 [9]) | IC50 (DR1) | IC50 (DR4 [10]) | IC50 (DRB5 [11])
CC(C)C[C@H](NC(=O)[C@H](C)NC(=O)[C@H](CCCNC(=N)N)NC(=O)[C@H](C)N)C(=O)N[C@@H](C)C(=O)N[C@@H](Cc1c[nH]cn1)C(=O)NCC(=O)N[C@H](C(=O)N[C@@H](CCCNC(=N)N)C(=O)N[C@H](C(=O)N[C@@H](CC(C)C)C(=O)N[C@@H](CCC(=O)O)C(=O)N[C@@H](CC(=O)O)C(=O)NCC(=O)N[C@H](C(=O)N[C@@H](CC(N)=O)C(=O)N[C@@H](Cc1ccc(O)cc1)C(=O)N[C@@H](C)C(=O)N[C@H](C(=O)NCC(=O)N[C@@H](CC(N)=O)C(=O)N[C@@H](CC(C)C)C(=O)N1CCC[C@H]1C(=O)NCC(=O)N[C@@H](C)C(=O)N[C@@H](CO)C(=O)O)[C@@H](C)O)C(C)C)C(C)C)C(C)C [6C 148-173] (H-ARALAHGVRVLEDGVNYATGNLPGAS-OH; N-terminus and C-terminus assumed) | 3.5 µM | 4.33 µM | 27.5 µM | 6.67 µM | do not induce any effect | 9.5 µM | 4.33 µM | 3.17 µM | 10 µM | low affinity | 4.83 µM | 0.03 µM | – | – | – | – | – | – | –
GAPLGGAARALAHG [C 141-155] | – | – | – | – | – | – | – | – | – | – | – | – | 50 µM | 9.49 µM | 11.8 µM | 0.49 µM | 3.5 µM | 80 µM | 8.33 µM
